According to patent US5502035A, “N-terminus modified analogs of LHRH” (Tap Holdings Inc., priority 1994, dated 1996):
Non-standard residues stand in square brackets, D forms with d. Residues, ends and D or L forms follow the SMILES beside them. *: point of attachment. Shikimoyl = O=C(C1=C[C@@H](O)[C@@H](O)[C@H](O)C1)*; Tetrahydrofuroyl(2R) = O=C([C@H]1CCCO1)*; dPhe(4-Cl) = N[C@H](Cc1ccc(Cl)cc1)C(=O)O; d2Nal = N[C@H](Cc1ccc2ccccc2c1)C(=O)O; Lys(iPr) = CC(C)NCCCC[C@H](N)C(=O)O; NMeY = CN[C@@H](Cc1ccc(O)cc1)C(=O)O; Thiophene2carbonyl = O=C(c1cccs1)*; X10 = Cc1ccc(S(=O)(=O)NNC(=O)*)cc1; dCit = NC(=O)NCCC[C@@H](N)C(=O)O; d3Pal = N[C@H](Cc1cccnc1)C(=O)O; Isonicotinoyl = O=C(c1ccncc1)*; Nicotinoyl = O=C(c1cccnc1)*; Picolinoyl = O=C(c1ccccn1)*; Tos = Cc1ccc(S(=O)(=O)*)cc1; 2Furoyl = O=C(c1ccco1)*; X1 = O=C([C@@H]1CCCO1)*; X3 = O=C([C@@H]1CCOC1)*; X7 = O=C([C@H]1CCOC1)*; X6 = O=C(c1ccoc1)*; azaGly = NNC(=O)O

Target: T1, LHRH (Rattus norvegicus, UniProt P30969)
T1 construct: endogenous in cells; host or cells: rat pituitary cells (own knowledge of the cited Haviv 1989 method)
T1 sequence (P30969 1-327): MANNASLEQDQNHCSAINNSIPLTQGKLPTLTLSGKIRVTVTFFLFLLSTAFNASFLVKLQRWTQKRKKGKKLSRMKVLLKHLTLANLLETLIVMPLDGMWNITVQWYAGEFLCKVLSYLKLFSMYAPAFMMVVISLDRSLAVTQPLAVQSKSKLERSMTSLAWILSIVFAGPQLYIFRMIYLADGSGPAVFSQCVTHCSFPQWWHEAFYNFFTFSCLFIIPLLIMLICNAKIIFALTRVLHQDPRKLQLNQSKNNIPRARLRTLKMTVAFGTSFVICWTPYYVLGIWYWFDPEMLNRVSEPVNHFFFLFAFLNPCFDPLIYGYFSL
Assay: in vitro test for LHRH antagonist potency (pA2)
Type: cell-based
Conditions: negative logarithm of the antagonist concentration required to shift the response curve produced by the agonist leuprolide to two-fold higher concentration
Procedure, shortened: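 Antagonism read against the agonist leuprolide on rat LHRH receptor; value is pA2, the −log of antagonist concentration that doubles the agonist concentration needed for the same response.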

Point of comparison: `CC(C)C[C@H](NC(=O)[C@@H](CCCCNC(=O)c1cccnc1)NC(=O)[C@H](Cc1ccc(O)cc1)N(C)C(=O)[C@H](CO)NC(=O)[C@@H](Cc1cccnc1)NC(=O)[C@@H](Cc1ccc(Cl)cc1)NC(=O)[C@@H](Cc1ccc2ccccc2c1)NC(=O)[C@H]1CCOC1)C(=O)N[C@@H](CCCCNC(C)C)C(=O)N1CCC[C@H]1C(=O)N[C@H](C)C(N)=O` [Example 69, N-(S)-Tetrahydrofur-3-oyl-D2Nal-D4ClPhe-D3Pal-Ser-NMeTyr-DLys(Nic)t-Leu-Lys(Isp)-Pro-DAlaNH2] (X7-[d2Nal][dPhe(4-Cl)][d3Pal]S[NMeY][dK](Nicotinoyl)L[Lys(iPr)]P[dA]-NH2), Kb 0.02 nM. Against it:
- CC(C)C[C@H](NC(=O)[C@@H](CCCCNC(=O)c1cccnc1)NC(=O)[C@H](Cc1ccc(O)cc1)N(C)C(=O)[C@H](CO)NC(=O)[C@@H](Cc1cccnc1)NC(=O)[C@@H](Cc1ccc(Cl)cc1)NC(=O)[C@@H](Cc1ccc2ccccc2c1)NC(=O)NNC(=O)c1ccncc1)C(=O)N[C@@H](CCCCNC(C)C)C(=O)N1CCC[C@H]1C(=O)N[C@H](C)C(N)=O [Example 37d, N-Isonicotinyl-Azagly-D2Nal-D4ClPhe-D3Pal-Ser-NMeTyr-DLys(Nic)-Leu-Lys(Isp)-Pro-DAlaNH2] (Isonicotinoyl-[azaGly][d2Nal][dPhe(4-Cl)][d3Pal]S[NMeY][dK](Nicotinoyl)L[Lys(iPr)]P[dA]-NH2) — 6.3-fold higher, 0.126 nM
- Cc1ccc(S(=O)(=O)NNC(=O)N[C@H](Cc2ccc3ccccc3c2)C(=O)N[C@H](Cc2ccc(Cl)cc2)C(=O)N[C@H](Cc2cccnc2)C(=O)N[C@@H](CO)C(=O)N(C)[C@@H](Cc2ccc(O)cc2)C(=O)N[C@H](CCCCNC(=O)c2cccnc2)C(=O)N[C@@H](CC(C)C)C(=O)N[C@@H](CCCCNC(C)C)C(=O)N2CCC[C@H]2C(=O)N[C@H](C)C(N)=O)cc1 [Example 37e, N-Tosyl-Azagly-D2Nal-D4ClPhe-D3Pal-Ser-NMeTyr-DLys(Nic)-Leu-Lys(Isp)-Pro-DAlaNH2] (X10-[d2Nal][dPhe(4-Cl)][d3Pal]S[NMeY][dK](Nicotinoyl)L[Lys(iPr)]P[dA]-NH2) — within 1.5-fold, 0.0224 nM
- CC(C)C[C@H](NC(=O)[C@@H](CCCCNC(=O)c1cccnc1)NC(=O)[C@H](Cc1ccc(O)cc1)N(C)C(=O)[C@H](CO)NC(=O)[C@@H](Cc1cccnc1)NC(=O)[C@@H](Cc1ccc(Cl)cc1)NC(=O)[C@@H](Cc1ccc2ccccc2c1)NC(=O)CNC(=O)[C@@H]1CCCO1)C(=O)N[C@@H](CCCCNC(C)C)C(=O)N1CCC[C@H]1C(=O)N(C)CC(N)=O [Example 39, N-(S)-Tetrahydrofur-2-oyl-Gly-D2Nal-D4ClPhe-D3Pal-Ser-NMeTyr-DLys(Nicotinyl)-Leu-Lys(Isp)-Pro-SarNH2] — within 1.5-fold, 0.0155 nM
- Cc1ccc(S(=O)(=O)N[C@H](Cc2ccc3ccccc3c2)C(=O)N[C@H](Cc2ccc(Cl)cc2)C(=O)N[C@H](Cc2cccnc2)C(=O)N[C@@H](CO)C(=O)N(C)[C@@H](Cc2ccc(O)cc2)C(=O)N[C@H](CCCNC(N)=O)C(=O)N[C@@H](CC(C)C)C(=O)N[C@@H](CCCNC(=N)N)C(=O)N2CCC[C@H]2C(=O)N[C@H](C)C(N)=O)cc1 [Example 66, N-Tosyl-D2Nal-D4ClPhe-D3Pal-Ser-NMeTyr-DCit-Leu-Arg-Pro-DAlaNH2] (Tos-[d2Nal][dPhe(4-Cl)][d3Pal]S[NMeY][dCit]LRP[dA]-NH2) — 130-fold higher, 2.63 nM
- CC(C)C[C@H](NC(=O)[C@@H](CCCCNC(=O)c1cccnc1)NC(=O)[C@H](Cc1ccc(O)cc1)N(C)C(=O)[C@H](CO)NC(=O)[C@@H](Cc1cccnc1)NC(=O)[C@@H](Cc1ccc(Cl)cc1)NC(=O)[C@@H](Cc1ccc2ccccc2c1)NC(=O)[C@@H]1CCCO1)C(=O)N[C@@H](CCCCNC(C)C)C(=O)N1CCC[C@H]1C(=O)N[C@H](C)C(N)=O [Example 67, N-(S)-Tetrahydrofur-2-oyl-D2Nal-D4ClPhe-D3Pal-Ser-NMeTyr-DLys(Nic)-Leu-Lys(Isp)-Pro-DAlaNH2] (X1-[d2Nal][dPhe(4-Cl)][d3Pal]S[NMeY][dK](Nicotinoyl)L[Lys(iPr)]P[dA]-NH2) — within 1.5-fold, 0.0251 nM
- CC(C)C[C@H](NC(=O)[C@@H](CCCCNC(=O)c1cccnc1)NC(=O)[C@H](Cc1ccc(O)cc1)N(C)C(=O)[C@H](CO)NC(=O)[C@@H](Cc1cccnc1)NC(=O)[C@@H](Cc1ccc(Cl)cc1)NC(=O)[C@@H](Cc1ccc2ccccc2c1)NC(=O)[C@H]1CCCO1)C(=O)N[C@@H](CCCCNC(C)C)C(=O)N1CCC[C@H]1C(=O)N[C@H](C)C(N)=O [Example 68, N-(R)-Tetrahydrofur-2-oyl-D2Nal-D4ClPhe-D3Pal-Ser-NMeTyr-DLys(Nic)-Leu-Lys(Isp)-Pro-DAlaNH2] ({Tetrahydrofuroyl(2R)}-[d2Nal][dPhe(4-Cl)][d3Pal]S[NMeY][dK](Nicotinoyl)L[Lys(iPr)]P[dA]-NH2) — within 1.5-fold, 0.0141 nM
- CC(C)C[C@H](NC(=O)[C@@H](CCCCNC(=O)c1cccnc1)NC(=O)[C@H](Cc1ccc(O)cc1)N(C)C(=O)[C@H](CO)NC(=O)[C@@H](Cc1cccnc1)NC(=O)[C@@H](Cc1ccc(Cl)cc1)NC(=O)[C@@H](Cc1ccc2ccccc2c1)NC(=O)[C@@H]1CCOC1)C(=O)N[C@@H](CCCCNC(C)C)C(=O)N1CCC[C@H]1C(=O)N[C@H](C)C(N)=O [Example 70, N-(R)-Tetrahydrofur-3-oyl-D2Nal-D4ClPhe-D3Pal-Ser-NMeTyr-DLys(Nic)-Leu-Lys(Isp)-Pro-DAlaNH2] (X3-[d2Nal][dPhe(4-Cl)][d3Pal]S[NMeY][dK](Nicotinoyl)L[Lys(iPr)]P[dA]-NH2) — 1.6-fold lower, 0.0126 nM
- CC(C)C[C@H](NC(=O)[C@@H](CCCCNC(=O)c1cccnc1)NC(=O)[C@H](Cc1ccc(O)cc1)N(C)C(=O)[C@H](CO)NC(=O)[C@@H](Cc1cccnc1)NC(=O)[C@@H](Cc1ccc(Cl)cc1)NC(=O)[C@@H](Cc1ccc2ccccc2c1)NC(=O)C1=C[C@@H](O)[C@@H](O)[C@H](O)C1)C(=O)N[C@@H](CCCCNC(C)C)C(=O)N1CCC[C@H]1C(=O)N[C@H](C)C(N)=O [Example 71, N-Shikimyl-D2Nal-D4ClPhe-D3Pal-Ser-NMeTyr-DLys(Nic)-Leu-Lys(Isp)-Pro-DAlaNH2] (Shikimoyl-[d2Nal][dPhe(4-Cl)][d3Pal]S[NMeY][dK](Nicotinoyl)L[Lys(iPr)]P[dA]-NH2) — 2.8-fold lower, 0.00708 nM
- CC(C)C[C@H](NC(=O)[C@@H](CCCCNC(=O)c1cccnc1)NC(=O)[C@H](Cc1ccc(O)cc1)N(C)C(=O)[C@H](CO)NC(=O)[C@@H](Cc1cccnc1)NC(=O)[C@@H](Cc1ccc(Cl)cc1)NC(=O)[C@@H](Cc1ccc2ccccc2c1)NC(=O)c1ccco1)C(=O)N[C@@H](CCCCNC(C)C)C(=O)N1CCC[C@H]1C(=O)N[C@H](C)C(N)=O [Example 72a, N-2-Furoyl-D2Nal-D4ClPhe-D3Pal-Ser-NMeTyr-DLys(Nic)-Leu-Lys(Isp)-Pro-DAlaNH2] (2Furoyl-[d2Nal][dPhe(4-Cl)][d3Pal]S[NMeY][dK](Nicotinoyl)L[Lys(iPr)]P[dA]-NH2) — 2-fold lower, 0.01 nM
- CC(C)C[C@H](NC(=O)[C@@H](CCCCNC(=O)c1cccnc1)NC(=O)[C@H](Cc1ccc(O)cc1)N(C)C(=O)[C@H](CO)NC(=O)[C@@H](Cc1cccnc1)NC(=O)[C@@H](Cc1ccc(Cl)cc1)NC(=O)[C@@H](Cc1ccc2ccccc2c1)NC(=O)c1ccoc1)C(=O)N[C@@H](CCCCNC(C)C)C(=O)N1CCC[C@H]1C(=O)N[C@H](C)C(N)=O [Example 72b, N-3-Furoyl-D2Nal-D4ClPhe-D3Pal-Ser-NMeTyr-DLys(Nic)-Leu-Lys(Isp)-Pro-DAlaNH2] (X6-[d2Nal][dPhe(4-Cl)][d3Pal]S[NMeY][dK](Nicotinoyl)L[Lys(iPr)]P[dA]-NH2) — 4.3-fold higher, 0.0851 nM
- CC(C)C[C@H](NC(=O)[C@@H](CCCCNC(=O)c1cccnc1)NC(=O)[C@H](Cc1ccc(O)cc1)N(C)C(=O)[C@H](CO)NC(=O)[C@@H](Cc1cccnc1)NC(=O)[C@@H](Cc1ccc(Cl)cc1)NC(=O)[C@@H](Cc1ccc2ccccc2c1)NC(=O)c1cccs1)C(=O)N[C@@H](CCCCNC(C)C)C(=O)N1CCC[C@H]1C(=O)N[C@H](C)C(N)=O [Example 72c, N-Thienyl-2-carbonyl-D2Nal-D4ClPhe-D3Pal-Ser-NMeTyr-DLys(Nic)-Leu-Lys(Isp)-Pro-DAlaNH2] (Thiophene2carbonyl-[d2Nal][dPhe(4-Cl)][d3Pal]S[NMeY][dK](Nicotinoyl)L[Lys(iPr)]P[dA]-NH2) — the same, 0.02 nM
- CC(C)C[C@H](NC(=O)[C@@H](CCCCNC(=O)c1cccnc1)NC(=O)[C@H](Cc1ccc(O)cc1)N(C)C(=O)[C@H](CO)NC(=O)[C@@H](Cc1cccnc1)NC(=O)[C@@H](Cc1ccc(Cl)cc1)NC(=O)[C@@H](Cc1ccc2ccccc2c1)NC(=O)c1cccnc1)C(=O)N[C@@H](CCCCNC(C)C)C(=O)N1CCC[C@H]1C(=O)N[C@H](C)C(N)=O [Example 72d, N-Nicotinyl-D2Nal-D4ClPhe-D3Pal-Ser-NMeTyr-DLys(Nic)-Leu-Lys(Isp)-Pro-DAlaNH2] (Nicotinoyl-[d2Nal][dPhe(4-Cl)][d3Pal]S[NMeY][dK](Nicotinoyl)L[Lys(iPr)]P[dA]-NH2) — 2.3-fold lower, 0.00871 nM
- CC(C)C[C@H](NC(=O)[C@@H](CCCCNC(=O)c1cccnc1)NC(=O)[C@H](Cc1ccc(O)cc1)N(C)C(=O)[C@H](CO)NC(=O)[C@@H](Cc1cccnc1)NC(=O)[C@@H](Cc1ccc(Cl)cc1)NC(=O)[C@@H](Cc1ccc2ccccc2c1)NC(=O)c1ccccn1)C(=O)N[C@@H](CCCCNC(C)C)C(=O)N1CCC[C@H]1C(=O)N[C@H](C)C(N)=O [Example 72e, N-Picolinoyl-D2Nal-D4ClPhe-D3Pal-Ser-NMeTyr-DLys(Nic)-Leu-Lys(Isp)-Pro-DAlaNH2] (Picolinoyl-[d2Nal][dPhe(4-Cl)][d3Pal]S[NMeY][dK](Nicotinoyl)L[Lys(iPr)]P[dA]-NH2) — within 1.5-fold, 0.0141 nM
